We go through 16 molecules from paper PMC10064822, “The importance of including the C-terminal domain of PTP1B1-400 to identify potential antidiabetic inhibitors” (Journal of Enzyme Inhibition and Medicinal Chemistry, 2023).

One assay deals with PTP1B1-321. Particulars: cited from earlier work.
The subject of the next assay is PTP1B1-301. Particulars: cited from earlier work.
For the next assay, the system named is PTP1B1-400. Particulars: cited from earlier work.
For assay [1], the target named is T1, hPTP1B1-400 (Homo sapiens, UniProt P18031).
T1 sequence (P18031 1-400): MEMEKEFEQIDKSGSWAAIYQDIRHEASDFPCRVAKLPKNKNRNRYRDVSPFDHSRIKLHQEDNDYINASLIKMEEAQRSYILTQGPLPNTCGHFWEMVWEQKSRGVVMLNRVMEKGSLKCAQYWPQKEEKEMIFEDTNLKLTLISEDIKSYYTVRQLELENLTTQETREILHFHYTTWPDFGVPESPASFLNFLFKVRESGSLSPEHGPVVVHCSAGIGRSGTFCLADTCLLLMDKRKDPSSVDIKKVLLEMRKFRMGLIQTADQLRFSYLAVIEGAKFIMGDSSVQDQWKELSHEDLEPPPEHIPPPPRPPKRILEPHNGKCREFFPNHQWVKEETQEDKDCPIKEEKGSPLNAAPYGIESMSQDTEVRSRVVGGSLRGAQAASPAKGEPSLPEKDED
The assay can be described thus: Enzyme kinetics of hPTP1B1-400 inhibition. The format is biochemical. Details: the three purified hPTP1B constructs (hPTP1B1-285, hPTP1B1-321, and hPTP1B1-400); His-tag (N); made in house; host or cells: E. coli BL21 (DE3). Particulars: for Type of inhibition: hPTP1B1-400, pNPP 0.1-0.5 mM, best fit by R^2; for Vmax: fit of inhibition model. The protocol: The negative control was prepared with the enzyme and substrate in the absence of an inhibitor. The experiments were performed in triplicate. […] (2) y= Vmax x/Km + x,
Vmax is the maximum velocity, x is the […] concentration, and Km is the Michaelis constant.
(3) y= Vmax (x)/Km (1+(I/Ki))+x (4) y= Vmax (x)/((1+I)/(α Ki)) /x+Km ((1+I)/ Ki)/(1+I)/(α Ki)), (5) y= Vmax (x)/ x+(Km/(1+I)/Ki)
Vmax is the maximum velocity, x is the substrate concentration, I is the inhibitor concentration, Km is the Michaelis constant, Ki is the inhibition constant, and α=Vmax without inhibitor/Vmax with inhibitor.

A further assay has as its system PTP1B1-405. Particulars: cited from earlier work.
The next assay has as its system PTP1B1-393. The settings on record: cited from earlier work.
The next assay relates to PTP1B1-298. The settings on record: cited from earlier work.
For a further assay, the system named is PTP1B1-299. The arrangement: method as in PMID 15475571. The settings on record: PTP1B1-299 ref [20]; cited from earlier work.
Another assay addresses T2, hPTP1B1-321 (Homo sapiens, UniProt P18031).
T2 sequence (P18031 1-321): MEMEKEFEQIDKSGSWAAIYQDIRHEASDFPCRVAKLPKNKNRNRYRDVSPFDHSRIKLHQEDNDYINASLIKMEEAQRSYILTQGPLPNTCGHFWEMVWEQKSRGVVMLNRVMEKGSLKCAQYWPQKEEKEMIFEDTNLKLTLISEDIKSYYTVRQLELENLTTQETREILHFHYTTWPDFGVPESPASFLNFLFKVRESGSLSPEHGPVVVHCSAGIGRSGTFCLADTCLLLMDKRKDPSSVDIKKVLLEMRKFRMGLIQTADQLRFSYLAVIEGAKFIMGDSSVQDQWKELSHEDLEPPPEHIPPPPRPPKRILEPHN
The experiment in a line: hPTP1B inhibition assay (pNPP), construct hPTP1B1-321. Particulars: read-out: Km of the substrate (pNPP); hPTP1B1-321, no inhibitor.

In the next assay the target is T3, hPTP1B1-285 (Homo sapiens, UniProt P18031).
T3 sequence (P18031 1-285): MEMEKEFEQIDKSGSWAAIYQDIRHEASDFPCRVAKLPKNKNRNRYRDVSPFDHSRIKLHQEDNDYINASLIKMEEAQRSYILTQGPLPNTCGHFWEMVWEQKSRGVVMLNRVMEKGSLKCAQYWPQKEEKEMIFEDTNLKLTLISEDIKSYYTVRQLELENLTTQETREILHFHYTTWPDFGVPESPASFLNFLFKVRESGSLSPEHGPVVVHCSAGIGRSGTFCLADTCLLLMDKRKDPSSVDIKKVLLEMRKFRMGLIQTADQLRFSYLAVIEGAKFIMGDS
The assay can be described thus: hPTP1B inhibition assay (pNPP), construct hPTP1B1-285. Particulars: read-out: Km of the substrate (pNPP); hPTP1B1-285, no inhibitor.

Assay [2] has as its target T1, hPTP1B1-400. The experiment in a line: hPTP1B inhibition assay (pNPP), construct hPTP1B1-400. Particulars: read-out: Km of the substrate (pNPP); hPTP1B1-400, no inhibitor.

Where two headings read alike, the source gives them in different places. Some results are limits rather than exact numbers.

`O=C(/C=C/c1ccc(O)c(O)c1)O[C@@H]1C[C@](O)(C(=O)O)C[C@@H](O)[C@H]1O` [CGA, chlorogenic acid]: in the assay on PTP1B1-321 (PTP1B1-321 ref [39]), the IC50 is 9.82 µM and the Inhibition type entry is reported as “Non-competitive”. In addition, in the assay with PTP1B1-301 (PTP1B1-301 ref [47]), the Inhibition type entry was “Non-competitive” and the Ki was 8.2 mM.

As for `Cc1ccc(C(=O)Nc2ccc(S(=O)(=O)O)c3cc(S(=O)(=O)O)cc(S(=O)(=O)O)c23)cc1NC(=O)c1cccc(NC(=O)Nc2cccc(C(=O)Nc3cc(C(=O)Nc4ccc(S(=O)(=O)O)c5cc(S(=O)(=O)O)cc(S(=O)(=O)O)c45)ccc3C)c2)c1` [SUR, suramin], in the assay with PTP1B1-321 (PTP1B1-321 ref [40], [50]), the half-maximal inhibitory concentration (IC50) was 11 µM, the Inhibition type result is recorded as “Competitive” and the inhibition constant (Ki) was 4 µM. Besides, in the assay with PTP1B1-400 (PTP1B1-400 ref [28]), the IC50 was 4.1 µM, the Inhibition type entry is on record as “Competitive” and the inhibition constant Ki was 7.1 µM. Also, the Type of inhibition result at hPTP1B1-400 [1] is on record as “Competitive”. Also, the Vmax on hPTP1B1-400 [1] (hPTP1B1-400, pNPP substrate) worked out at 0.64 ± 0.02.

With `CC(C)[C@@H](CC[C@@H](C)[C@H]1CC[C@H]2[C@@H]3[C@H](O)C[C@H]4C[C@@H](NCCCNCCCCNCCCN)CC[C@]4(C)[C@H]3CC[C@]12C)OS(=O)(=O)O` [Trodusquemine], the Inhibition type result in the assay on PTP1B1-321 (PTP1B1-321 ref [7]), with PTP1B1-405 (PTP1B1-405 ref [7]) and with PTP1B1-400 (PTP1B1-400 ref [43]) was “Non-competitive” each time. The 50% inhibitory concentration (IC50) with PTP1B1-400 (PTP1B1-400 ref [43]) is 1 µM.

`CC1CCC2(C(=O)O)CCC3(C)C(=CCC4C5(C)C(O)C(=O)C(O)C(C)(C)C5CCC43C)C2C1(C)O` (stereo not drawn) [1β,3α,19α-trihydroxy-2-oxours-12-en-28-oic acid]: in the assay with PTP1B1-321 (PTP1B1-321 ref [49]), the IC50 was 13.2 µM, the Inhibition type entry was “Non-competitive” and the inhibition constant (Ki) is 10.8 µM.

`CC1=C(O)C(=O)C=C2C1=CC=C1[C@@]2(C)CC[C@@]2(C)[C@@H]3C[C@](C)(C(=O)O)CC[C@]3(C)CC[C@]12C` [Celastrol]: in the assay with PTP1B1-393 (PTP1B1-393 ref [36]), the half-maximal inhibitory concentration (IC50) was 2100 nM and the Inhibition type entry was “Non-competitive”. In addition, in the assay on PTP1B1-298 (PTP1B1-298 ref [36]), the IC50 was 4.8 µM, the Inhibition type entry is “Non-competitive” and the dissociation constant (Kd) was 6.1 µM.

As for 2-(hydroxy-phenoxy) acetic acid, in the assay on PTP1B1-321 (PTP1B1-321 ref [38]), the Inhibition type entry is “Competitive” and the inhibition constant (Ki) was 9 µM.

In the case of `Cc1cc(-c2c3ccccc3c(Br)c3sc(C)c(C)c23)cc(C)c1O[C@H](Cc1ccccc1)C(=O)O` [Ertiprotafib], the Inhibition type result with PTP1B1-301 (PTP1B1-301 ref [18]), in the assay with PTP1B1-299 and in the assay with PTP1B1-393 (PTP1B1-393 ref [18]) was “Nonclassic kinetics: Aggregation” throughout. In the assay on PTP1B1-299, the IC50 was above 20 µM.

On to `[Na+].[Na+].[Na+].[O]=[V]([O-])([O-])[O-]` [SO, sodium orthovanadate], for which, in the assay with PTP1B1-321 (PTP1B1-321 ref [39–42]), the IC50 is 1.38 µM, the Inhibition type result is on record as “Competitive” and the Ki was 0.38 µM. In addition, the Type of inhibition result on hPTP1B1-400 [1] is “Uncompetitive”. Further, at hPTP1B1-400 [1] (hPTP1B1-400, pNPP substrate), the Vmax is on record as 3.20 ± 0.80.

Regarding `C[C@H]1[C@H](C)CC[C@]2(C(=O)O)CC[C@]3(C)C(=CC[C@@H]4[C@@]5(C)CC[C@H](O)C(C)(C)[C@@H]5CC[C@]43C)[C@H]12` [UA, ursolic acid], the half-maximal inhibitory concentration (IC50) with PTP1B1-321 (PTP1B1-321 ref [45]) was 6.6 µM; with PTP1B1-321 (PTP1B1-321 ref [46]) it was 3.08 µM; in the assay with PTP1B1-298 (PTP1B1-298 ref [44]) it was 7.1 µM; in the assay with PTP1B1-400 (PTP1B1-400 ref [28]), 5.6 µM. Besides, the Inhibition type result in the assay on PTP1B1-321 (PTP1B1-321 ref [45]) is listed as “Competitive”; in the assay with PTP1B1-321 (PTP1B1-321 ref [46]) it was “Competitive”; in the assay with PTP1B1-298 (PTP1B1-298 ref [44]), “Non-competitive”; with PTP1B1-400 (PTP1B1-400 ref [28]), “Non-competitive”. Moreover, the inhibition constant (Ki) on PTP1B1-298 (PTP1B1-298 ref [44]) is 25.8 µM; at PTP1B1-400 (PTP1B1-400 ref [28]) it was 8.9 µM. Moreover, the Type of inhibition result at hPTP1B1-400 [1] was “Mixed”. The Vmax on hPTP1B1-400 [1] (hPTP1B1-400, pNPP substrate) is reported as 0.63 ± 0.08.

In the case of `O=C(O)C(=O)Nc1ccccc1C(=O)O` [2-(Oxaloamino) benzoic acid (OBA), 2-(oxaloamino) benzoic acid], in the assay on PTP1B1-321 (PTP1B1-321 ref [37]), the Inhibition type entry was “Competitive” and the inhibition constant Ki was 200 µM.

On to `Oc1cc(Cc2cc(O)c(O)c(Br)c2Cc2cc(O)c(O)c(Br)c2Br)c(Br)c(Br)c1O` [BDB, 3-bromo-4,5-bis(2,3-dibromo-4,5-dihydroxybenzyl)-1,2-benzenediol], for which, in the assay with PTP1B1-321 (PTP1B1-321 ref [21]), the IC50 was 1.86 µM and the Inhibition type result is “Competitive”.

In the case of `C[C@@H]1CC[C@]2(C(=O)O)CC[C@]3(C)C(=CC[C@@H]4[C@@]5(C)C[C@H](O)[C@H](O)C(C)(C)[C@@H]5CC[C@]43C)[C@@H]2[C@]1(C)O` [2β-hydroxy pomolic acid], in the assay with PTP1B1-321 (PTP1B1-321 ref [49]), the IC50 was 5.88 µM, the Inhibition type result is on record as “Mixed-competitive” and the Ki was 7.56 µM.

Take `O=C(/C=C/c1ccc(O)c(O)c1)O[C@@H](C(=O)O)[C@@H](OC(=O)/C=C/c1ccc(O)c(O)c1)C(=O)O` [Cichoric acid (CHA), Cichoric acid]: the Inhibition type result in the assay with PTP1B1-321 (PTP1B1-321 ref [39]) is given as “Non-competitive”. Moreover, in the assay with PTP1B1-301 (PTP1B1-301 ref [47]), the Inhibition type result is listed as “Competitive” and the inhibition constant Ki is 1.4 mM.

As to `COc1ccc(-n2ncc3c2C(C)(C)[C@@H]2CC[C@]4(C)[C@H](C(=O)C=C5[C@@H]6C[C@@](C)(C(=O)O)CC[C@]6(C)CC[C@]54C)[C@@]2(C)C3)cc1` [5 b], the Type of inhibition entry at hPTP1B1-400 [1] is listed as “Uncompetitive”. Moreover, at hPTP1B1-400 [1] (hPTP1B1-400, pNPP substrate), the Ki was determined as 3.42 ± 0.2 µM and the Vmax was 0.87 ± 0.03.

For `COC(=O)CC[C@@H](C)[C@H]1CC[C@H]2[C@@H]3[C@H](O)C[C@H]4C[C@H](NCCCCNCc5ccccn5)CC[C@]4(C)[C@H]3CC[C@]12C` [DPM-1001], in the assay on PTP1B1-405 (PTP1B1-405 ref [48]), the IC50 was 100 nM, the Inhibition type entry is given as “Non-competitive” and the Kd is 75 nM.

Regarding `O=[N+]([O-])c1ccc(OP(=O)(O)O)cc1` [pNPP, p-nitrophenyl phosphate], the Km is 15.7 ± 1.68 mM at hPTP1B1-321, 16.4 ± 1.55 mM on hPTP1B1-285 and 2.03 ± 0.11 mM on hPTP1B1-400 [2].
